Measured values as given in the supplement of paper PMC11451515.

Tested on: SEM cells
Experiment: cell viability relative to DMSO control; higher = less cytotoxic
Details: 48 h
In short: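 Before seeding, each leukemia line was adapted for at least four passages in each medium. NOMO1 or SEM cells (500 cells/well) and P12-Ichikawa cells (1000 cells/well) went into 1536-well plates at 5 μl, then received library compounds in DMSO by pin dosing across 11 threefold concentrations, 47 μM to 0.79 nM. Readout was CellTiter-Glo One luminescence after 48 h at 37°C, and viability is given as a per-plate percentage of DMSO wells, with cell-free wells as background.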

[1] = HPLM + 10% dialyzed FBS, 0.000781 µM
[2] = HPLM + 10% dialyzed FBS, 0.00234 µM
[3] = HPLM + 10% dialyzed FBS, 0.00702 µM
[4] = HPLM + 10% dialyzed FBS, 0.0211 µM
[5] = HPLM + 10% dialyzed FBS, 0.0632 µM
[6] = HPLM + 10% dialyzed FBS, 0.19 µM
[7] = HPLM + 10% dialyzed FBS, 0.569 µM
[8] = HPLM + 10% dialyzed FBS, 1.71 µM
[9] = HPLM + 10% dialyzed FBS, 5.12 µM
[10] = HPLM + 10% dialyzed FBS, 15.4 µM
[11] = HPLM + 10% dialyzed FBS, 46.1 µM
[12] = RPMI 5 mM glucose + 10% FBS, 0.000781 µM
[13] = RPMI 5 mM glucose + 10% FBS, 0.00234 µM
[14] = RPMI 5 mM glucose + 10% FBS, 0.00702 µM
[15] = RPMI 5 mM glucose + 10% FBS, 0.0211 µM
[16] = RPMI 5 mM glucose + 10% FBS, 0.0632 µM
[17] = RPMI 5 mM glucose + 10% FBS, 0.19 µM
[18] = RPMI 5 mM glucose + 10% FBS, 0.569 µM
[19] = RPMI 5 mM glucose + 10% FBS, 1.71 µM
[20] = RPMI 5 mM glucose + 10% FBS, 5.12 µM
[21] = RPMI 5 mM glucose + 10% FBS, 15.4 µM
[22] = RPMI 5 mM glucose + 10% FBS, 46.1 µM
[23] = RPMI 5 mM glucose + 10% dialyzed FBS, 0.000781 µM
[24] = RPMI 5 mM glucose + 10% dialyzed FBS, 0.00234 µM
[25] = RPMI 5 mM glucose + 10% dialyzed FBS, 0.00702 µM
[26] = RPMI 5 mM glucose + 10% dialyzed FBS, 0.0211 µM
[27] = RPMI 5 mM glucose + 10% dialyzed FBS, 0.0632 µM
[28] = RPMI 5 mM glucose + 10% dialyzed FBS, 0.19 µM
[29] = RPMI 5 mM glucose + 10% dialyzed FBS, 0.569 µM
[30] = RPMI 5 mM glucose + 10% dialyzed FBS, 1.71 µM
[31] = RPMI 5 mM glucose + 10% dialyzed FBS, 5.12 µM
[32] = RPMI 5 mM glucose + 10% dialyzed FBS, 15.4 µM
[33] = RPMI 5 mM glucose + 10% dialyzed FBS, 46.1 µM

SMILES | cell viability [1] | cell viability [2] | cell viability [3] | cell viability [4] | cell viability [5] | cell viability [6] | cell viability [7] | cell viability [8] | cell viability [9] | cell viability [10] | cell viability [11] | cell viability [12] | cell viability [13] | cell viability [14] | cell viability [15] | cell viability [16] | cell viability [17] | cell viability [18] | cell viability [19] | cell viability [20] | cell viability [21] | cell viability [22] | cell viability [23] | cell viability [24] | cell viability [25] | cell viability [26] | cell viability [27] | cell viability [28] | cell viability [29] | cell viability [30] | cell viability [31] | cell viability [32] | cell viability [33]
CN(C)c1ccc(O)c2c1C[C@H]1C[C@H]3[C@H](N(C)C)C(O)=C(C(N)=O)C(=O)[C@@]3(O)C(O)=C1C2=O | 97.4% | 98.3% | 93.9% | 108% | 107% | 103% | 91.9% | 104% | 104% | 107% | 118% | 98.3% | 103% | 93.8% | 96.4% | 114% | 108% | 105% | 110% | 103% | 93.5% | 106% | 106% | 119% | 106% | 106% | 105% | 106% | 115% | 122% | 114% | 107% | 104%
CC(=O)Nc1ccc(OC[C@](C)(O)C(=O)Nc2ccc([N+](=O)[O-])c(C(F)(F)F)c2)cc1 | 67.5% | 59.4% | 69% | 75.9% | 68.9% | 72.8% | 77.1% | 84% | 83.4% | 82.3% | 54.8% | 81.6% | 78.3% | 77.8% | 103% | 80.8% | 80.2% | 88.8% | 90.4% | 81.8% | 93.7% | 44.7% | 79.9% | 79% | 84.8% | 108% | 86.7% | 97.5% | 88.7% | 93.8% | 71% | 91.7% | 48%
c1cncc(CN2CCC(n3ncc4c(N5CCOCC5)nc(-c5ccc6[nH]ccc6c5)nc43)CC2)c1 | 93.8% | 88.8% | 98.3% | 90% | 101% | 81% | 66.6% | 69.2% | 73.4% | 58.9% | 33.1% | 123% | 117% | 111% | 103% | 105% | 95.4% | 68.2% | 93% | 80.3% | 37.1% | 11.6% | 87.1% | 88.4% | 94.7% | 87.2% | 87.3% | 96.4% | 61.9% | 76.2% | 66.5% | 32.6% | 8.23%
C\C1=C\C(=O)OC2=C1C=CC(=C2)O | 120% | 114% | 126% | 119% | 118% | 119% | 128% | 77.1% | 122% | 111% | 109% | 98.1% | 118% | 108% | 104% | 118% | 110% | 118% | 87.3% | 108% | 97.1% | 92.1% | 120% | 119% | 146% | 136% | 135% | 117% | 114% | 75.2% | 117% | 117% | 115%
C[C@@H](NC1=CC=CC=C1C(O)=O)C/2=C/C(=C\N3C(=O)/C=C(\N=C23)N4CCOCC4)C | 69.7% | 76.5% | 91.3% | 77.7% | 87.8% | 77.7% | 84.3% | 79.1% | 61.1% | 13.4% | 19.8% | 89.1% | 92.3% | 117% | 92.8% | 104% | 90.6% | 98.2% | 87.5% | 55% | 8.88% | 13.3% | 65% | 76.4% | 91.7% | 87% | 92.7% | 77.8% | 70.3% | 63.9% | 44.1% | 9.08% | 11.2%
Cc1ccccc1C(C(=O)NC1CCCCC1)N(C(=O)Cn1ccnc1C)c1cccc(F)c1 (centres undefined) | 109% | 31% | 118% | 111% | 109% | 130% | 127% | 124% | 114% | 100% | 92.7% | 112% | 108% | 96.9% | 103% | 98.4% | 114% | 112% | 121% | 110% | 84.1% | 88.9% | 84.5% | 27.9% | 100% | 105% | 102% | 88.5% | 110% | 95.2% | 97.4% | 93.6% | 90.6%
Cl.Cl.Cl.O[C@@H](COc1cccc2ncccc12)CN1CCN([C@@H]2c3ccccc3[C@@H]3[C@H](c4ccccc42)C3(F)F)CC1 | 88.2% | 103% | 82.3% | 83.8% | 105% | 90% | 84.5% | 89.6% | 91.9% | 71.2% | 73.4% | 89.3% | 100% | 75.7% | 95.7% | 98.6% | 82.6% | 86.2% | 94.5% | 100% | 97.3% | 3.4% | 94.1% | 92.1% | 85.7% | 93.9% | 101% | 102% | 86.9% | 106% | 85.3% | 105% | 83.5%
CN[S+](=O)([O-])Cc1ccc2[nH]cc(CCN(C)C)c2c1 | 95.3% | 104% | 102% | 111% | 112% | 118% | 113% | 119% | 118% | 129% | 118% | 89.2% | 114% | 104% | 114% | 107% | 119% | 121% | 115% | 126% | 128% | 128% | 93.4% | 86% | 87% | 91.8% | 94.1% | 102% | 95.7% | 106% | 94.8% | 111% | 92.9%
